Some targets named below: D(3) dopamine receptor (Homo sapiens, UniProt P35462); Vasopressin V2 receptor (Homo sapiens, UniProt P30518); Histamine H1 receptor (Homo sapiens, UniProt P35367).
The target of assay [1] is T1, Neuropeptide Y receptor type 1 (Homo sapiens, UniProt P25929).
T1 sequence (P25929 whole entry): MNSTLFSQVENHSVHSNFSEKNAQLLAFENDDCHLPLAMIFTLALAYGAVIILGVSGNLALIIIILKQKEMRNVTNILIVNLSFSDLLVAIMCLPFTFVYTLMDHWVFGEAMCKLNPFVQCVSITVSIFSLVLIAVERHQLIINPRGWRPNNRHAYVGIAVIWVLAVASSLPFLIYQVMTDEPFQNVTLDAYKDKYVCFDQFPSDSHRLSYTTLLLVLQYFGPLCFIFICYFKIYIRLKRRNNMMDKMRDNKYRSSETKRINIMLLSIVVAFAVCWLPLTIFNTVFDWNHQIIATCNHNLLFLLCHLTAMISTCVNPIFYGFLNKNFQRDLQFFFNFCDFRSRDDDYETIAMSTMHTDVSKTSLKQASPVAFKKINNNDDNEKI

The target in assay [2] is Sodium-dependent noradrenaline transporter (Homo sapiens, UniProt P23975).
Assay [3] has as its target Prostaglandin G/H synthase 1 (Homo sapiens, UniProt P23219). Type of assay: functional.
In assay [4] the target is T2, Alpha-1A adrenergic receptor (Homo sapiens, UniProt P35348).
T2 sequence (P35348 whole entry): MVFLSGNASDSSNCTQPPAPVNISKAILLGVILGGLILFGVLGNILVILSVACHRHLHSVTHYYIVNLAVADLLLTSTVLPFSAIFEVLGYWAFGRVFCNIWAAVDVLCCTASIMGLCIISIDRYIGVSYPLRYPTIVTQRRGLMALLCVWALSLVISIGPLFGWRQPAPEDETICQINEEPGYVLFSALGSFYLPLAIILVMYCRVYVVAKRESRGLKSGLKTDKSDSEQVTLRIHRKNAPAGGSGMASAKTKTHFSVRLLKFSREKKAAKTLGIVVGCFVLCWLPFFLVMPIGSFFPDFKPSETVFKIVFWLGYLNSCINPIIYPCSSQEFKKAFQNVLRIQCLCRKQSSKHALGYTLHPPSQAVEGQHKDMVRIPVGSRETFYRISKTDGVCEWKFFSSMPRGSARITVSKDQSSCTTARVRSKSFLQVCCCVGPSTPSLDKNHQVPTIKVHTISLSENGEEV
Format: functional, cell-based.

For a further assay, the target named is Histamine H2 receptor (Homo sapiens, UniProt P25021). Format: functional, cell-based.
For another assay, the target named is Prothrombin (Homo sapiens, UniProt P00734). Type of assay: functional.
Assay [5] deals with cGMP-inhibited 3',5'-cyclic phosphodiesterase 3A (Homo sapiens, UniProt Q14432). Format: functional.
The next assay has as its target T3, Adenosine receptor A3 (Homo sapiens, UniProt P0DMS8).
T3 sequence (P0DMS8 whole entry): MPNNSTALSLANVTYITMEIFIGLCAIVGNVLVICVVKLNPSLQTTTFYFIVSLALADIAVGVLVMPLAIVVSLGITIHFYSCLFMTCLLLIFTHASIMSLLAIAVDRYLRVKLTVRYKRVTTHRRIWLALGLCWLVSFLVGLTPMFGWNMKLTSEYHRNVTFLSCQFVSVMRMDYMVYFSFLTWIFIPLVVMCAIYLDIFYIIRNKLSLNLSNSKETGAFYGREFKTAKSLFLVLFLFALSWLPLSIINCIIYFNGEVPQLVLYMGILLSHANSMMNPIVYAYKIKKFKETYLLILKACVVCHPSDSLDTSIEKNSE

A further assay has as its target T4, Progesterone receptor (Homo sapiens, UniProt P06401).
T4 sequence (P06401 whole entry): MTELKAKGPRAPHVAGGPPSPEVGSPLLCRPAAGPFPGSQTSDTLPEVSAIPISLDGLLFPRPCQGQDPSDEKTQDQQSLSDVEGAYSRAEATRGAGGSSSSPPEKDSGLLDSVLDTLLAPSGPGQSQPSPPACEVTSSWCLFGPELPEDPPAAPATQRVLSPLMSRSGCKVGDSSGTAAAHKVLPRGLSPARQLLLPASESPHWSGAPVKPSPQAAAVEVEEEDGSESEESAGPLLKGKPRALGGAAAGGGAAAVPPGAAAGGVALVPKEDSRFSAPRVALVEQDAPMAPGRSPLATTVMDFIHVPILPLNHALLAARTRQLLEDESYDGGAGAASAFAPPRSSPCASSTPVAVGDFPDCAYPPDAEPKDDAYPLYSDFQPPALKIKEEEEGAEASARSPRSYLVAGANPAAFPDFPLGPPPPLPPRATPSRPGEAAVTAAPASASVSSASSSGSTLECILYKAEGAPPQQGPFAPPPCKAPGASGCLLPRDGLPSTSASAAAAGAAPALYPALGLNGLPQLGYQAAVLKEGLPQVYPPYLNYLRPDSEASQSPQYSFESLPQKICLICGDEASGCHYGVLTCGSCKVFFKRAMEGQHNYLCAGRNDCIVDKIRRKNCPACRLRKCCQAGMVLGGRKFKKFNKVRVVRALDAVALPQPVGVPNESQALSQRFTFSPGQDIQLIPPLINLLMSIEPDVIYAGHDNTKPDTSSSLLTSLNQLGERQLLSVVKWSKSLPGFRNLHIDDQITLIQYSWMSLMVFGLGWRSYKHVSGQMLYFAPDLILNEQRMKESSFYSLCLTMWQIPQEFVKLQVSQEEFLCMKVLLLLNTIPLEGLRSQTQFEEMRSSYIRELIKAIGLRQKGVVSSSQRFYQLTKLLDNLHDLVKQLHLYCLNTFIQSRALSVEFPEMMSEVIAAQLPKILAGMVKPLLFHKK
Type of assay: functional.

Assay [6] concerns the target Sodium-dependent serotonin transporter (Homo sapiens, UniProt P31645).

The term AC50 denotes the concentration at which the activity in the assay is half-maximal. Low values mean activity at low concentration, high ones activity only at high concentration.
Further: assay procedure not described here.

Chain of Sodium-dependent serotonin transporter (P31645 whole entry): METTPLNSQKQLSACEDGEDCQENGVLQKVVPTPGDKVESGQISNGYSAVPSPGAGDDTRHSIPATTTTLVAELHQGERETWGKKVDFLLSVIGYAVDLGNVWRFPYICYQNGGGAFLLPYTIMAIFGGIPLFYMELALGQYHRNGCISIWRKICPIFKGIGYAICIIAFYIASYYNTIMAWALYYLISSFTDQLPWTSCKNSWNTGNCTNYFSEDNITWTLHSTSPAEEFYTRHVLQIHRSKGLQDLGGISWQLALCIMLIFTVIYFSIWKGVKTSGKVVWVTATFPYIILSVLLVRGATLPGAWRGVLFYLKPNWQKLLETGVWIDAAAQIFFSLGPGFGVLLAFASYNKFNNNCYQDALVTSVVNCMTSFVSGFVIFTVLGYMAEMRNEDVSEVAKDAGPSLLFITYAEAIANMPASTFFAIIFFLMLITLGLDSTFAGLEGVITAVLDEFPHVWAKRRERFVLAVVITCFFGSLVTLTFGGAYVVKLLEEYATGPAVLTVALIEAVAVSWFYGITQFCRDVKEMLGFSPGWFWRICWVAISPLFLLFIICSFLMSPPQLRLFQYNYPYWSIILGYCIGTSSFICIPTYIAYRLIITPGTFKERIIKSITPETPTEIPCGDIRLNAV
Chain of Sodium-dependent noradrenaline transporter (P23975 whole entry): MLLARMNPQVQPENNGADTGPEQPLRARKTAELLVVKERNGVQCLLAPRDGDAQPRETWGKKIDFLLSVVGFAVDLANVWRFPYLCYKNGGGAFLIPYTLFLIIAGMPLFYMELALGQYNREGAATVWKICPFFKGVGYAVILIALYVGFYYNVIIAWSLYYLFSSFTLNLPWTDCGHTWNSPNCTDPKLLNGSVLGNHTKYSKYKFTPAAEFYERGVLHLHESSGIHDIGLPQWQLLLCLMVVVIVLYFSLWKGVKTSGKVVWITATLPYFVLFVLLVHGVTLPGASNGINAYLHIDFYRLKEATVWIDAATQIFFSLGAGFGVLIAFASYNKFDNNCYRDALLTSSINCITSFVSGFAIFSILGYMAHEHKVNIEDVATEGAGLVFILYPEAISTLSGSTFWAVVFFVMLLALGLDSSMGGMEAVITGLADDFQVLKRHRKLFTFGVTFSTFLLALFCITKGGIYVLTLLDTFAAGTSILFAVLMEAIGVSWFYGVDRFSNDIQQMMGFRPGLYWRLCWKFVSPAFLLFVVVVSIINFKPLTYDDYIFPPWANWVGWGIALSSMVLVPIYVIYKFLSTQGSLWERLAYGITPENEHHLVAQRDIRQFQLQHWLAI
Chain of Histamine H2 receptor (P25021 whole entry): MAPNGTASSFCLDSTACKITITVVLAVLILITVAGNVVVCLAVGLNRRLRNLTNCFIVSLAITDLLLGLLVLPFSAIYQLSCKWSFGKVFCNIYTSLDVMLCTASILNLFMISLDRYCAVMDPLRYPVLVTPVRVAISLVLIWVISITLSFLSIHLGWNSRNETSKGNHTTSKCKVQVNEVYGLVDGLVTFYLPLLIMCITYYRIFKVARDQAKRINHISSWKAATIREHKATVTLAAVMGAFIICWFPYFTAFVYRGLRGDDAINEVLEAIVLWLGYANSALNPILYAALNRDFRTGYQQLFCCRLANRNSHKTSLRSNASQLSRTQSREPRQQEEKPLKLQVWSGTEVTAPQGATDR
Chain of Prostaglandin G/H synthase 1 (P23219 whole entry): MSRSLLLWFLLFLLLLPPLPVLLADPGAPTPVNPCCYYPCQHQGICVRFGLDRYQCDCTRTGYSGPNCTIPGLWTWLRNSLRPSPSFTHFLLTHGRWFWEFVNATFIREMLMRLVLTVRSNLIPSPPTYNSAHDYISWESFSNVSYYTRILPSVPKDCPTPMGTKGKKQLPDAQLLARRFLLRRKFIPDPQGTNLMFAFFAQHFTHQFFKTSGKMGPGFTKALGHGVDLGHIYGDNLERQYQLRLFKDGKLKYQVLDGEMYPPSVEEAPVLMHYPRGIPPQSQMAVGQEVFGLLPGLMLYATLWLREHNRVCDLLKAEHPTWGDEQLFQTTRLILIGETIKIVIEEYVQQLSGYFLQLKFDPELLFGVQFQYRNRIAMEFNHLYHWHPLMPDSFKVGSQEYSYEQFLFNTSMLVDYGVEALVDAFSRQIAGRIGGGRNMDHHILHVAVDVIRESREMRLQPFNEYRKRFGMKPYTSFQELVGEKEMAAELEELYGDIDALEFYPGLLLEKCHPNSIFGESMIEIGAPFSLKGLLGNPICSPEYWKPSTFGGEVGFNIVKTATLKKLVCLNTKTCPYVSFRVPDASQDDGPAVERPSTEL
Chain of Vasopressin V2 receptor (P30518 whole entry): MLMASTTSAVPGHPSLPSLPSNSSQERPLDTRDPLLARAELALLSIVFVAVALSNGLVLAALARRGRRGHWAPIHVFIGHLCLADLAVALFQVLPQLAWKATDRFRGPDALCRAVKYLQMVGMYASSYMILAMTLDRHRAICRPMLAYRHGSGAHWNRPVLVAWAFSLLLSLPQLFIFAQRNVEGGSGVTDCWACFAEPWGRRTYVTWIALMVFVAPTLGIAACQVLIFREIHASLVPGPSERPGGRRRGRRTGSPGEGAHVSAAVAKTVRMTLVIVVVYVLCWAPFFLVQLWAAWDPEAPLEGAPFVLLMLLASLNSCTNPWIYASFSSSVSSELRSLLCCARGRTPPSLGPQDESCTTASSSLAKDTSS
Chain of cGMP-inhibited 3',5'-cyclic phosphodiesterase 3A (Q14432 whole entry): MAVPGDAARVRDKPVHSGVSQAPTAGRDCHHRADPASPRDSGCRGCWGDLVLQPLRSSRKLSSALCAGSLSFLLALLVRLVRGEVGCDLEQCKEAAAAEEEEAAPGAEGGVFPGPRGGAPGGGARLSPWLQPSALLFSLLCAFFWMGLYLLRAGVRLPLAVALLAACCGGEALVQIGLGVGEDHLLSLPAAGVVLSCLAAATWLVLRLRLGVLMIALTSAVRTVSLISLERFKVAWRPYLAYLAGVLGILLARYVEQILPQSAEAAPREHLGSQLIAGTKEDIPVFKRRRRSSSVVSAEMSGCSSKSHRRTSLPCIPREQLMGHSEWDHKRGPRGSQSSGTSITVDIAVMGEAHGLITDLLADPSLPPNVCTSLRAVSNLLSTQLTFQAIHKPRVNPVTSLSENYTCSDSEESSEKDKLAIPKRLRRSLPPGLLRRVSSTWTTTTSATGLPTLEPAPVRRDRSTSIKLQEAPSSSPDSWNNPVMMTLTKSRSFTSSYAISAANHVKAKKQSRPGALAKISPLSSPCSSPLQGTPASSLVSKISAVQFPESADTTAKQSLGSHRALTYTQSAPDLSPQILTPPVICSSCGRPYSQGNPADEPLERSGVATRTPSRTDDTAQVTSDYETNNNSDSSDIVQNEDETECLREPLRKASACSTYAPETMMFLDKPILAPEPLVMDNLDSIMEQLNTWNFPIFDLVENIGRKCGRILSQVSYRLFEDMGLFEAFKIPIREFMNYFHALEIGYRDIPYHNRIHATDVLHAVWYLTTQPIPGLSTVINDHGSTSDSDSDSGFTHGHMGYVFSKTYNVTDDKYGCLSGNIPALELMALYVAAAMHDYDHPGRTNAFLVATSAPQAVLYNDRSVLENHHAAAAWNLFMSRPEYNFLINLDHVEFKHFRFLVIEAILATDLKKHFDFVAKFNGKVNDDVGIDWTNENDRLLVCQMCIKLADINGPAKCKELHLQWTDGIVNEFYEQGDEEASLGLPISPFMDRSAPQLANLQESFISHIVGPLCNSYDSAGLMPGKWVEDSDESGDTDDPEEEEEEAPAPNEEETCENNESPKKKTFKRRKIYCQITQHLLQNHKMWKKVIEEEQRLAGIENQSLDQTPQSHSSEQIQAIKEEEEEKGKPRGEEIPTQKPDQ
Chain of D(3) dopamine receptor (P35462 whole entry): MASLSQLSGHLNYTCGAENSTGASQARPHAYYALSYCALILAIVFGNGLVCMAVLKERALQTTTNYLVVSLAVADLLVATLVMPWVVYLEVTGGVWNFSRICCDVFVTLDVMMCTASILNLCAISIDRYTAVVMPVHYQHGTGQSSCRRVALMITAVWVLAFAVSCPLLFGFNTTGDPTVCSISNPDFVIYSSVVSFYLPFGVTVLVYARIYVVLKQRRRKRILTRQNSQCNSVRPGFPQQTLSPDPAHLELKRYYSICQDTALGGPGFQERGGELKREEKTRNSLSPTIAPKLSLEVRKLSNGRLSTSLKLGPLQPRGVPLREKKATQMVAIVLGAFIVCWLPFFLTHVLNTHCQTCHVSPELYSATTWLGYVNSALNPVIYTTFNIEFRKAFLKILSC
Chain of Histamine H1 receptor (P35367 whole entry): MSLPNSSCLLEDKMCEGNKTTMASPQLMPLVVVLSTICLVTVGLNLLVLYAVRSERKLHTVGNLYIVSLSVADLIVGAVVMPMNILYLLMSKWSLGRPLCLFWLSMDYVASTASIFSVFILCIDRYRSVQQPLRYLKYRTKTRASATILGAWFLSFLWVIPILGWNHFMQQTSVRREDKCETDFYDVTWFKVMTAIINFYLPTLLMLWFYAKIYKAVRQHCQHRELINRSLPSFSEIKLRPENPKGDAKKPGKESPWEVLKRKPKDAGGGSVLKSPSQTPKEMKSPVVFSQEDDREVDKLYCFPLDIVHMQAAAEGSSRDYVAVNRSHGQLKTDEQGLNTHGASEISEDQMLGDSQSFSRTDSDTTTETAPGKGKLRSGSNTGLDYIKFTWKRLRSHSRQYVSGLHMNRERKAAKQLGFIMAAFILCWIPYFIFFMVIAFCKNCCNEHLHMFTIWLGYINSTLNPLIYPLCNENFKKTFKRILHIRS

Turning to `Nc1nc(N)c2nc(-c3ccccc3)c(N)nc2n1`, the AC50 was over 30 µM in assay [1]; 16.1 µM in assay [2]; over 30 µM in assay [3]; over 30 µM in [4]; over 30 µM on Histamine H2 receptor; over 3 µM on Prothrombin. The AC50 (in [5]; on D(3) dopamine receptor; on Adenosine receptor A3; on Progesterone receptor; on Vasopressin V2 receptor) was over 30 µM each time.
Turning to `C[C@H]1O[C@H](O[C@H]2[C@H](O)[C@@H](O)[C@@H](O[C@H]3[C@H](O)[C@@H](O)C(O)O[C@@H]3CO)O[C@@H]2CO)[C@H](O)[C@@H](O)[C@@H]1N[C@H]1C=C(CO)[C@@H](O)[C@H](O)[C@H]1O` (stereo partly specified) [ACARBOSE], the AC50 in [1] is over 30 µM; in assay [2] it was over 30 µM; in [3] it was 24.4 µM; in [4], over 30 µM; on Histamine H2 receptor, over 10 µM; on Prothrombin, over 30 µM. Further, the AC50 is 17.6 µM in [5]; over 30 µM on D(3) dopamine receptor; over 30 µM on Adenosine receptor A3; over 30 µM on Progesterone receptor; over 30 µM on Vasopressin V2 receptor.
As for `Oc1ncnc2[nH]ncc12` [ALLOPURINOL], the AC50 is over 30 µM in assay [1]; over 30 µM in assay [2]; over 30 µM in assay [3]; over 30 µM in assay [4]; over 10 µM at Histamine H2 receptor; over 30 µM on Prothrombin. In addition, the AC50 (in assay [5]; at D(3) dopamine receptor; at Adenosine receptor A3; on Vasopressin V2 receptor) was over 30 µM throughout.
Regarding `CN(CCOc1ccc(NS(C)(=O)=O)cc1)CCc1ccc(NS(C)(=O)=O)cc1` [DOFETILIDE], the AC50 in [6] was over 10 µM; in assay [1], over 30 µM; in assay [2], over 30 µM; in [3], over 30 µM; on Histamine H1 receptor it was over 10 µM; in assay [4] it was over 30 µM. In addition, the AC50 at Histamine H2 receptor is over 30 µM; at Prothrombin, over 30 µM; in assay [5], over 30 µM; on D(3) dopamine receptor it was 3.36 µM; at Adenosine receptor A3, over 30 µM; at Vasopressin V2 receptor, over 30 µM.
Take `COc1cc2c(cc1OC)C(=O)C(CC1CCN(Cc3ccccc3)CC1)C2` (stereo unspecified) [DONEPEZIL]: the AC50 in [6] was over 30 µM; in assay [1], over 30 µM; in assay [2], 9.13 µM; in assay [3] it was over 30 µM; at Histamine H1 receptor, over 10 µM; at Histamine H2 receptor it was over 10 µM. The AC50 (on Prothrombin; in [5]; on Adenosine receptor A3; on Vasopressin V2 receptor) was over 30 µM each time.
Regarding `CC(C)C(=O)Nc1ccc([N+](=O)[O-])c(C(F)(F)F)c1` [FLUTAMIDE], the concentration at half-maximal activity (AC50) (in assay [1]; in [2]; in assay [3]; in assay [4]; at Histamine H2 receptor; at Prothrombin) was over 30 µM each time. In addition, the AC50 in [5] is over 30 µM; on D(3) dopamine receptor, over 30 µM; on Adenosine receptor A3, 20.3 µM; at Progesterone receptor it was over 10 µM; on Vasopressin V2 receptor, over 30 µM.
As for `CCc1ccc(CCOc2ccc(CC3SC(=O)NC3=O)cc2)nc1` (stereo unspecified) [PIOGLITAZONE], the AC50 was over 30 µM in assay [1]; over 30 µM in assay [2]; over 30 µM in [3]; over 10 µM on Histamine H2 receptor; over 30 µM on Prothrombin; over 30 µM in assay [5]. Besides, the AC50 at D(3) dopamine receptor, at Adenosine receptor A3 and on Vasopressin V2 receptor was over 30 µM in each case.
Consider `CC(C(=O)O)c1ccc(N2CC=CC2)c(Cl)c1` (stereo unspecified) [PIRPROFEN], for which the concentration at half-maximal activity (AC50) in [6] was over 10 µM; in [1], over 30 µM; in assay [2], over 30 µM; in [3], 0.115 µM; on Histamine H1 receptor it was over 10 µM; in assay [4], over 30 µM. Besides, the AC50 is over 10 µM at Histamine H2 receptor; over 30 µM at Prothrombin; over 30 µM in assay [5]; over 30 µM on D(3) dopamine receptor; over 30 µM at Adenosine receptor A3; over 30 µM at Vasopressin V2 receptor.
In the case of `NC(=O)c1cnccn1` [PYRAZINAMIDE], the AC50 is over 30 µM in assay [1]; over 30 µM in [2]; over 30 µM in assay [3]; 28 µM in assay [4]; over 30 µM on Histamine H2 receptor; over 30 µM at Prothrombin. Also, the AC50 (in assay [5]; at D(3) dopamine receptor; at Adenosine receptor A3; at Progesterone receptor; at Vasopressin V2 receptor) was over 30 µM throughout.
Turning to `CS(=O)(=O)c1ccc([C@@H](O)[C@@H](CO)NC(=O)C(Cl)Cl)cc1` [THIAMPHENICOL], the half-maximal activity concentration (AC50) (in [1]; in assay [2]; in assay [3]; in [4]; on Histamine H2 receptor; at Prothrombin) was over 30 µM each time. The AC50 (in assay [5]; on D(3) dopamine receptor; at Adenosine receptor A3; on Progesterone receptor; on Vasopressin V2 receptor) was over 30 µM each time.
For the compound `Cc1ccc(O)c2ncccc12` [TILIQUINOL], the AC50 is 6.22 µM in assay [2]; over 30 µM in assay [3]; over 30 µM on Prothrombin; over 30 µM in assay [5]; over 30 µM at D(3) dopamine receptor; over 30 µM at Adenosine receptor A3.
Consider `CC(=O)OC[C@H]1O[C@@H](n2ccc(=O)[nH]c2=O)[C@H](OC(C)=O)[C@@H]1OC(C)=O` [URIDINE TRIACETATE], for which the AC50 (in [2]; in [3]; at Prothrombin; in assay [5]; on D(3) dopamine receptor; on Adenosine receptor A3) was over 30 µM in each case.
Turning to `CCOC(=O)N[C@@H]1CC[C@@H]2[C@@H](C1)C[C@H]1C(=O)O[C@H](C)[C@H]1[C@H]2/C=C/c1ccc(-c2cccc(F)c2)cn1` [VORAPAXAR], the AC50 is 4.56 µM in assay [2]; over 30 µM in assay [3]; over 30 µM at Prothrombin; over 30 µM in assay [5]; over 30 µM at D(3) dopamine receptor; 2.43 µM on Adenosine receptor A3.

(Values after ChEMBL document CHEMBL5291721, “A preclinical secondary pharmacology resource illuminates target-adverse drug reaction associations of marketed drugs” (Nat Commun, 2023).)
